Test results reported in PubChem BioAssay AID1259407 (Chemical Carcinogenesis Research Information System (CCRIS), 2018).
Entries after “also recorded” stand apart in the source; their conditions may differ. Activity calls are given as the source filed them. The rule behind the calls is not given here.

System: CCRIS mutagenicity, Ames/micronucleus/aberration tests
Test: CCRIS mutagenicity studies

## OO
End Point: IN VITRO CHROMOSOMAL ABERRATIONS, Test System: CHO CELLS, Metabolic Activation: NONE
  mutagenic call: active; positive (structural changes)
End Point: IN VITRO CHROMOSOMAL ABERRATIONS, Test System: CHO-K1, Metabolic Activation: NONE
  mutagenic call: active; positive
End Point: IN VITRO CHROMOSOMAL ABERRATIONS, Test System: SYRIAN HAMSTER EMBRYO (SHE) CELLS, Metabolic Activation: NONE
  mutagenic call: active; positive (structural changes)
End Point: IN VITRO MICRONUCLEUS, Test System: CHL/IU CELLS, Metabolic Activation: NONE
  mutagenic call: active; positive
End Point: IN VITRO MICRONUCLEUS, Test System: CHO CELLS, Metabolic Activation: RAT, LIVER, S-9, AROCLOR 1254
  mutagenic call: inactive; negative
End Point: IN VITRO MICRONUCLEUS, Test System: HUMAN LYMPHOCYTES, Metabolic Activation: NONE
  mutagenic call: inactive; negative; main effect of h2o2 was necrosis
End Point: In vitro micronucleus, Test System: Chinese hamster V79 cells, Metabolic Activation: None
  mutagenic call: active; positive (hibiscus tiliaceus l methanolic extract at doses above 0.010 mg/ml had
End Point: In vitro micronucleus, Test System: Chinese hamster ovary (CHO) cells, Metabolic Activation: None
  mutagenic call: active; positive (lycopene (10, 25 and 50 um) significantly reduced the number of micron
Test System: AMES SALMONELLA TYPHIMURIUM, Strain/Indicator: SB1106, Metabolic Activation: NONE, Method: PREINCUBATION
  mutagenic call: active; positive
Test System: AMES SALMONELLA TYPHIMURIUM, Strain/Indicator: SB1106, Metabolic Activation: NONE, Method: STANDARD PLATE
  mutagenic call: active; positive
Test System: AMES SALMONELLA TYPHIMURIUM, Strain/Indicator: SB1106P, Metabolic Activation: NONE, Method: PREINCUBATION
  mutagenic call: active; positive
Test System: AMES SALMONELLA TYPHIMURIUM, Strain/Indicator: SB1106P, Metabolic Activation: NONE, Method: STANDARD PLATE
  mutagenic call: active; positive
Test System: AMES SALMONELLA TYPHIMURIUM, Strain/Indicator: SB1111, Metabolic Activation: NONE, Method: PREINCUBATION
  mutagenic call: inactive; negative
Test System: AMES SALMONELLA TYPHIMURIUM, Strain/Indicator: SB1111, Metabolic Activation: NONE, Method: STANDARD PLATE
  mutagenic call: active; positive
Test System: AMES SALMONELLA TYPHIMURIUM, Strain/Indicator: TA92, Metabolic Activation: NONE, Method: PREINCUBATION
  mutagenic call: inactive; negative
Test System: AMES SALMONELLA TYPHIMURIUM, Strain/Indicator: TA97, Metabolic Activation: NONE, Method: STANDARD PLATE
  mutagenic call: active; positive
Test System: AMES SALMONELLA TYPHIMURIUM, Strain/Indicator: TA97, Metabolic Activation: RAT, LIVER, S-9, PHENOBARBITAL, Method: LIQUID INCUBATION
  mutagenic call: active; positive
Test System: AMES SALMONELLA TYPHIMURIUM, Strain/Indicator: TA97, Metabolic Activation: RAT, LIVER, S-9, PHENOBARBITAL, Method: STANDARD PLATE
  mutagenic call: active; positive
Test System: AMES SALMONELLA TYPHIMURIUM, Strain/Indicator: TA98, Metabolic Activation: NONE, Method: PREINCUBATION
  mutagenic call: inactive; negative
Test System: AMES SALMONELLA TYPHIMURIUM, Strain/Indicator: TA98, Metabolic Activation: NONE, Method: STANDARD PLATE
  mutagenic call: inactive; negative
Test System: AMES SALMONELLA TYPHIMURIUM, Strain/Indicator: TA98, Metabolic Activation: RAT, LIVER, S-9, AROCLOR 1254, Method: PREINCUBATION
  mutagenic call: inactive; negative
Test System: AMES SALMONELLA TYPHIMURIUM, Strain/Indicator: TA98, Metabolic Activation: RAT, LIVER, S-9, AROCLOR 1254, Method: STANDARD PLATE
  mutagenic call: inactive; negative
Test System: AMES SALMONELLA TYPHIMURIUM, Strain/Indicator: TA100, Metabolic Activation: NONE, Method: PREINCUBATION
  mutagenic call: inactive; negative
Test System: AMES SALMONELLA TYPHIMURIUM, Strain/Indicator: TA100, Metabolic Activation: NONE, Method: STANDARD PLATE
  mutagenic call: active; positive
Test System: AMES SALMONELLA TYPHIMURIUM, Strain/Indicator: TA100, Metabolic Activation: RAT, LIVER, S-9, AROCLOR 1254, Method: PREINCUBATION
  mutagenic call: inactive; negative
Test System: AMES SALMONELLA TYPHIMURIUM, Strain/Indicator: TA100, Metabolic Activation: RAT, LIVER, S-9, AROCLOR 1254, Method: STANDARD PLATE
  mutagenic call: active; positive
Test System: AMES SALMONELLA TYPHIMURIUM, Strain/Indicator: TA102, Metabolic Activation: RAT, LIVER, S-9, AROCLOR 1254, Method: PREINCUBATION
  mutagenic call: inactive; negative
Test System: AMES SALMONELLA TYPHIMURIUM, Strain/Indicator: TA104, Metabolic Activation: NONE, Method: PREINCUBATION
  mutagenic call: active; positive
Test System: AMES SALMONELLA TYPHIMURIUM, Strain/Indicator: TA104, Metabolic Activation: NONE, Method: STANDARD PLATE
  mutagenic call: active; positive
Test System: AMES SALMONELLA TYPHIMURIUM, Strain/Indicator: TA1535, Metabolic Activation: NONE, Method: PREINCUBATION
  mutagenic call: inactive; negative
Test System: AMES SALMONELLA TYPHIMURIUM, Strain/Indicator: TA1535, Metabolic Activation: NONE, Method: STANDARD PLATE
  mutagenic call: inactive; negative
Test System: AMES SALMONELLA TYPHIMURIUM, Strain/Indicator: TA1535, Metabolic Activation: RAT, LIVER, S-9, AROCLOR 1254, Method: STANDARD PLATE
  mutagenic call: inactive; negative
Test System: AMES SALMONELLA TYPHIMURIUM, Strain/Indicator: TA1537, Metabolic Activation: NONE, Method: STANDARD PLATE
  mutagenic call: inactive; negative
Test System: AMES SALMONELLA TYPHIMURIUM, Strain/Indicator: TA1537, Metabolic Activation: RAT, LIVER, S-9, AROCLOR 1254, Method: STANDARD PLATE
  mutagenic call: inactive; negative
Test System: AMES SALMONELLA TYPHIMURIUM, Strain/Indicator: TA1537, Metabolic Activation: RAT, LIVER, S-9, PHENOBARBITAL, Method: LIQUID INCUBATION
  mutagenic call: active; positive
Test System: AMES SALMONELLA TYPHIMURIUM, Strain/Indicator: TA1537, Metabolic Activation: RAT, LIVER, S-9, PHENOBARBITAL, Method: STANDARD PLATE
  mutagenic call: active; positive
Test System: AMES SALMONELLA TYPHIMURIUM, Strain/Indicator: TA1538, Metabolic Activation: NONE, Method: STANDARD PLATE
  mutagenic call: inactive; negative
Test System: AMES SALMONELLA TYPHIMURIUM, Strain/Indicator: TA1538, Metabolic Activation: RAT, LIVER, S-9, AROCLOR 1254, Method: STANDARD PLATE
  mutagenic call: inactive; negative
Test System: AMES SALMONELLA TYPHIMURIUM, Strain/Indicator: TA1975, Metabolic Activation: NONE, Method: PREINCUBATION
  mutagenic call: inactive; negative
Test System: AMES SALMONELLA TYPHIMURIUM, Strain/Indicator: TA2638, Metabolic Activation: NONE, Method: STANDARD PLATE
  mutagenic call: active; positive
Test System: AMES SALMONELLA TYPHIMURIUM, Strain/Indicator: TA2638A, Metabolic Activation: NONE, Method: STANDARD PLATE
  mutagenic call: active; positive
Test System: AMES SALMONELLA TYPHIMURIUM, Strain/Indicator: YG3001, Metabolic Activation: NONE, Method: PREINCUBATION
  mutagenic call: inactive; negative
Test System: AMES SALMONELLA TYPHIMURIUM, Strain/Indicator: YG3002, Metabolic Activation: NONE, Method: PREINCUBATION
  mutagenic call: inactive; negative
Test System: AMES SALMONELLA TYPHIMURIUM, Strain/Indicator: YG3003, Metabolic Activation: NONE, Method: PREINCUBATION
  mutagenic call: active; positive
Test System: Ames Salmonella typhimurium, Strain/Indicator: TA102, Metabolic Activation: None, Method: Preincubation
  mutagenic call: active; positive (decrease in mutagenicity when 0.99-15.90 mg/plate of chloroform extrac; also recorded: active; positive (dose related decrease in mutagenicity when 1.82-7.30 mg/plate of metha
Test System: Ames Salmonella typhimurium, Strain/Indicator: TA102, Metabolic Activation: Rat, Liver, S-9, Aroclor 1254, Method: Preincubation
  mutagenic call: active; positive (decrease in mutagenicity when 0.99-15.90 mg/plate of chloroform extrac; also recorded: active; positive (decrease in mutagenicity when 0.46 or 0.91 mg/plate of methanol extrac
Test System: CHINESE HAMSTER G10, Strain/Indicator: G10 (GPT)/6-THIOGUANINE, Metabolic Activation: NONE
  mutagenic call: inactive; negative
Test System: CHINESE HAMSTER G12, Strain/Indicator: G12 (GPT)/6-THIOGUANINE, Metabolic Activation: NONE
  mutagenic call: active; positive
Test System: CHINESE HAMSTER V79 CELLS, Strain/Indicator: V79 CELLS (HPRT)/6-THIOGUANINE, Metabolic Activation: NONE, Method: PREINCUBATION
  mutagenic call: inactive; negative
Test System: CHINESE HAMSTER V-79, Strain/Indicator: V-79 (HPRT)/6-THIOGUANINE, Metabolic Activation: NONE
  mutagenic call: inactive; negative
Test System: CHINESE HAMSTER V-79, Strain/Indicator: V-79/6-THIOGUANINE, Metabolic Activation: NONE, Method: FLASK ASSAY
  mutagenic call: inactive; negative
Test System: CHINESE HAMSTER V-79, Strain/Indicator: V-79/6-THIOGUANINE, Metabolic Activation: NONE, Method: STANDARD PLATE
  mutagenic call: active; positive
Test System: CHINESE HAMSTER V-79, Strain/Indicator: V-79/8-AZAGUANINE, Metabolic Activation: NONE
  mutagenic call: active; positive
Test System: Chinese hamster ovary cells, Strain/Indicator: EM9 (HPRT)/6-Thioguanine, Metabolic Activation: None
  mutagenic call: active; positive
Test System: E. COLI, Strain/Indicator: WP2 (PKM101), Metabolic Activation: NONE, Method: STANDARD PLATE
  mutagenic call: active; positive
Test System: E. COLI, Strain/Indicator: WP2, Metabolic Activation: NONE, Method: STANDARD PLATE
  mutagenic call: inactive; negative
Test System: E. COLI, Strain/Indicator: WP2, Metabolic Activation: RAT, LIVER, S-9, AROCLOR 1254, Method: STANDARD PLATE
  mutagenic call: inactive; negative
Test System: E. COLI, Strain/Indicator: WP2 UVRA (PKM101), Metabolic Activation: NONE, Method: STANDARD PLATE
  mutagenic call: active; positive
Test System: HCT116 COLON CANCER CELLS, Strain/Indicator: HCT116 CELLS (HPRT)/6-THIOGUANINE, Metabolic Activation: NONE, Method: PREINCUBATION
  mutagenic call: active; positive
Test System: HUMAN T LYMPHOCYTES, Strain/Indicator: PRIMARY CULTURES (HPRT)/6-THIOGUANINE, Metabolic Activation: NONE, Method: PREINCUBATION
  mutagenic call: active; positive
Test System: MOUSE LYMPHOMA, Strain/Indicator: L5178Y (TK+/TK-), Metabolic Activation: NONE, Method: SUSPENSION/PLATE
  mutagenic call: active; positive
Test System: UDS HUMAN FIBROBLASTS, Strain/Indicator: THY INCORP (NON-S-PHASE), Metabolic Activation: NONE, Method: AUTORADIOGRAPHY
  mutagenic call: active; positive
Test System: UDS HUMAN FIBROBLASTS, Strain/Indicator: THY INCORP, Metabolic Activation: NONE, Method: AUTORADIOGRAPHY
  mutagenic call: active; positive
